How the values were obtained:
PI3K gamma = target: T1, PI3K gamma (Homo sapiens, UniProt P48736); test: PI3K gamma kinase assay (Kinase-Glo luminescence); assay type: biochemical
T1 construct: His tag (C); made in house; host or cells: baculovirus (pVL1393); Tn5 or TiniPro insect cells; construct from Roger Williams lab, MRC LMB
How it was run: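 Luminescent ATP-depletion (Kinase-Glo) assay with 150 nM PI3Kγ, 1 μM ATP and 10 μg/mL phosphatidylinositol in 10 mM Tris-HCl pH 7.5, 3 mM MgCl2, 50 mM NaCl, 0.05% CHAPS, 1 mM DTT; 120 min at room temperature. Eight-point dilutions; IC50 by four-parameter logistic fit.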

[1] = system: S6 Ribosomal Protein phosphorylation Ser235/236 in TSC1 null mouse embryo fibroblast (MEF) cells; test: Reverse protein array assay, S6 Ribosomal Protein phosphorylation Ser235/236 in TSC1 null MEF cells; assay type: cell-based; conditions: 1 h, pS6 ribosomal protein Ser235/236, 60 minutes incubation, read-out: p-S6 IC50
How it was run: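 TSC1−/− MEFs, seeded and held ≥20 h at 37 °C/5% CO2, were exposed to 8-step serial compound dilutions (0.02% DMSO final; DMSO vehicle control) for 60 min at 37 °C. Cells were then lysed on ice for 10 min and lysates spotted onto reverse protein array chips.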

T1 sequence (P48736 144-1102 limits assumed): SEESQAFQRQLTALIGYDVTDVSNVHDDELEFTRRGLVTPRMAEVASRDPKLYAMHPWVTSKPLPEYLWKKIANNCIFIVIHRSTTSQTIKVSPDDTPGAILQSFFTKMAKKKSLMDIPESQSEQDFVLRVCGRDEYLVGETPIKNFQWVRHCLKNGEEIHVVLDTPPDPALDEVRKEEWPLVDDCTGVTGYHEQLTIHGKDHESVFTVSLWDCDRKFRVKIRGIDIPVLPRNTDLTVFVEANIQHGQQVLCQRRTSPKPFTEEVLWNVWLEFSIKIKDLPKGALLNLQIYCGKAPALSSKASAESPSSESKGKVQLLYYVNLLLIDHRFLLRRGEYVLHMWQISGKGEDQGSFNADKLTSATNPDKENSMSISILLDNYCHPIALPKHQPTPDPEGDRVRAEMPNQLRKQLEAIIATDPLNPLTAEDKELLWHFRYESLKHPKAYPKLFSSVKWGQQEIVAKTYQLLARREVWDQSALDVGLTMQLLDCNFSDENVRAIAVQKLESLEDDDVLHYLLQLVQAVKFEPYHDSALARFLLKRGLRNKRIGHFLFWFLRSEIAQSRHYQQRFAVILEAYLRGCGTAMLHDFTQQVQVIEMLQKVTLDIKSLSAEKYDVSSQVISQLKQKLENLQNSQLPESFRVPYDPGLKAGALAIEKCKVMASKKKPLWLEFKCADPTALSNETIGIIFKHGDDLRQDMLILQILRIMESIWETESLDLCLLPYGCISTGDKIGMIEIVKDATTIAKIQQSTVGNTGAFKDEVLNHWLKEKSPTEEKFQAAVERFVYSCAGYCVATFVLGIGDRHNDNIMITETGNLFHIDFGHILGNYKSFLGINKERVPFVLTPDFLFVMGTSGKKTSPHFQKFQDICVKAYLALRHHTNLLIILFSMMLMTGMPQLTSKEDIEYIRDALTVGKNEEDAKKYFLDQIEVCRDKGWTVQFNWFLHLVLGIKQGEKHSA

| Compound | IC50 (PI3K gamma) [nM] | IC50 [1] [nM] |
| --- | --- | --- |
| CN(C)c1ccc(-c2ccc3ncc4c(c3c2)n(-c2cn(C)nc2Cl)c(=O)n4C)cn1 [Example 4.9, 1-(3-Chloro-1-methyl-1H-pyrazol-4-yl)-8-(6-dimethylamino-pyridin-3-yl)-3-methyl-1,3-dihydro-imidazo[4,5-c]quinolin-2-one] | 150 | 2 |
| CNS(=O)(=O)c1cccc(-c2ccc3ncc4c(c3c2)n(-c2cn(C)nc2C)c(=O)n4C)c1 [Example 39, 3-[1-(1,3-Dimethyl-1H-pyrazol-4-yl)-3-methyl-2-oxo-2,3-dihydro-1H-imidazo[4,5-c]quinolin-8-yl]-N-methyl-benzenesulfonamide] | 75 | 37 |
| Cc1nn(C)cc1-n1c(=O)n(C)c2cnc3ccc(-c4cccc(NS(C)(=O)=O)c4)cc3c21 [Example 47, N-{3-[1-(1,3-dimethyl-1H-pyrazol-4-yl)-3-methyl-2-oxo-2,3-dihydro-1H-imidazo[4,5-c]quinolin-8-yl]-phenyl}-methanesulfonamide] | 701 | 127 |
| Cc1nn(C)cc1-n1c(=O)n(C)c2cnc3ccc(-c4ccc(-c5ncc[nH]5)cc4)cc3c21 [Example 77, 1-(1,3-Dimethyl-1H-pyrazol-4-yl)-8-[4-(1H-imidazol-2-yl)-phenyl]-3-methyl-1,3-dihydro-imidazo[4,5-c]quinolin-2-one] | 75 | 5 |
| Cc1nn(C)cc1-n1c(=S)n(C)c2cnc3ccc(-c4cccnc4)cc3c21 [Example 128.1, 1-(1,3-Dimethyl-1H-pyrazol-4-yl)-3-methyl-8-pyridin-3-yl-1,3-dihydro-imidazo[4,5-c]quinoline-2-thione] | 142 | 9 |
| COc1ccc(-c2ccc3ncc4c(c3c2)n(-c2cn(C)nc2C)c(=S)n4C)cc1OC [Example 128.2, 8-(3,4-Dimethoxy-phenyl)-1-(1,3-dimethyl-1H-pyrazol-4-yl)-3-methyl-1,3-dihydro-imidazo[4,5-c]quinoline-2-thione] | 117 | 1 |
| CCNC(=O)c1cc(-c2ccc3ncc4c(c3c2)n(-c2cn(C(C)C)nc2C)c(=O)n4C)cnc1N [Example 227, 2-Amino-N-ethyl-5-[1-(1-isopropyl-3-methyl-1H-pyrazol-4-yl)-3-methyl-2-oxo-2,3-dihydro-1H-imidazo[4,5-c]quinolin-8-yl]-nicotinamide] | – | 12 |
| COc1ncc(-c2ccc3ncc4c(c3c2)n(-c2cc(C)nn2C)c(=O)n4C)c(OC)n1 [Example 234.4, 8-(2,4-Dimethoxy-pyrimidin-5-yl)-1-(2,5-dimethyl-2H-pyrazol-3-yl)-3-methyl-1,3-dihydro-imidazo[4,5-c]quinolin-2-one] | – | 10.1 |
| CNc1ccc(-c2ccc3ncc4c(c3c2)n(-c2cn(C(C)C)nc2C)c(=S)n4C)cn1 [Example 241, 1-(1-isopropyl-3-methyl-1H-pyrazol-4-yl)-3-methyl-8-(6-(methylamino)pyridin-3-yl)-1H-imidazo[4,5-c]quinoline-2(3H)-thione] | – | < 0.5 |
| CCn1cc(-n2c(=O)n(C)c3cnc4ccc(-c5ccc(OC)c(OC)c5)nc4c32)c(C)n1 [Example 254, 8-(3,4-Dimethoxy-phenyl)-1-(1-ethyl-3-methyl-1H-pyrazol-4-yl)-3-methyl-1,3-dihydro-1,3,5,9-tetraaza-cyclopenta[a]naphthalen-2-one] | 145 | 58 |

From patent publication US20140005163A1 (NOVARTIS AG, priority 2010, published 2014)
